Two molecules from publication PMC8350397, “GSK137, a potent small-molecule BCL6 inhibitor with in vivo activity, suppresses antibody responses in mice” (The Journal of Biological Chemistry, 2021) can be followed below.

Assay [1] deals with T1, human BCL6 BTB-POZ domain (SMRT co-repressor peptide) (Homo sapiens, UniProt P41182, C67R/C84N/C8Q).
T1 construct: BCL6-Flag-6H-Avi (5-129) C8Q, C67R, C84N proteins; Flag (C); 6H (His6) (C); made in house; host or cells: E. coli
Briefly: BCL6 TR-FRET assay, SMRT peptide displacement. Type of assay: binding. As for the experimental part: Human, mouse and rat BCL6-Flag-6H-Avi (5-129) C8Q, C67R, C84N proteins were expressed in E. coli according to standard procedures and purified on Ni-NTA, followed by ion exchange on a Source 30Q column and size exclusion on an Superdex 200 column in a buffer of 20 mM Tris, 250 mM NaCl, 5 mM DTT, 5% glycerol, pH 8.5. All protein purities were estimated to be >90% by SDS-PAGE and the expected masses were confirmed by MS analysis. For TR-FRET assay protein was enzymatically biotinylated by treatment of protein at 100 µM with a 2 fold molar excess of biotin in the presence of 2 mM ATP and 1 µM BirA enzyme in a buffer of 50 mM bicine pH 8.3, 10 mM MgCl2 at 30 °C for 1 hour, followed by extensivedialysis against 50 mM Tris-Cl pH 8.0, 100 mM NaCl, 1 mM DTT using a 3.5 kDa cut-off membrane. Biotinylation was confirmed by MS analysis and concentration was determined by Bradford assay, after which protein was stored in aliquots at -80 °C.
Acceptor-labelled SMRT peptide H2N-[…](D2)-OH was dissolved in water by mass to give a 500 µM stock solution which was stored at -20 °C. Acceptor-labelled NCOR peptide H2N-[…](Alexa Fluor 647)-OH and acceptor-labelled BCOR peptide H2N-[…](Alexa Fluor 647)-OH were dissolved to a nominal concentration of 1 mM in DMSO, and stock solution concentration was determined by absorbance at 650 nm using an extinction coefficient of 270,000 M-1cm^-1. […]
(In general: TR-FRET usually uses a lanthanide donor and a delayed reading to cut background.)

The target in assay [2] is T2, full-length human BCL6 binding to BCL6-binding domain of SMRT (residues 1292-1500) (Homo sapiens, UniProt P41182).
T2 construct: Nano Luciferase fused at the N-terminus of full-length human BCL6; host or cells: HEK293-WT (ATCC CRL-1573)
As to the kind of experiment: NanoBRET cell assay in HEK293-WT cells. Type of assay: cell-based. The text has this:
Plasmids encoding Nano Luciferase fused at the N-terminus of full-length human BCL6 and encoding Halo tag fused at the C-terminus of the BCL6 binding domain (1292-1500) of human SMRT co-repressor were generated under contract by Promega Corporation. HEK293-WT cells were from ATCC (CRL-1573). Fugene HD transfection reagent (catalogue number E2311), HaloTag NanoBRET 618 ligand (catalogue number G980B) and NanoBRET Nano-Glo substrate (catalogue number N157B) were from Promega Ltd.
Assay day 1 (Transient Transfection): 8 x 10^6 HEK293-WT cells per T75 flask (one per compound plate), were transfected with mix comprising 10 µg BCL6 DNA, 10 µg domain SMRT DNA, 1 mL Opti-MEM and 60 µL FuGene (added last), incubating at room temperature for 10 mins prior to addition to flask. The flask was incubated for 20-24 hours at 37 °C and 5% CO2. Assay day 2 (Cell plating): Cells were detached, spun and re-suspended at 2 x 10^5 cells/mL, HaloTag NanoBRET 618 ligand at 1:1000 dilution was added and plated at 40 µL / well with test compounds prepared as above, a duplicate plate without HaloTag ligand was used as background control. The plates were incubated at 37 °C and 5% CO2 overnight (18-24 hours). Assay day 3 (Assay): 1:1000 NanoGlo substrate final was added to all wells, shaken for 30 seconds and luminescence then read on an Envision plate reader. […]

For assay [3], the system named is Farage, Karpas422 and VAL cells. As to the kind of experiment: Viability and cumulative cell number analysis, Farage, Karpas422, VAL. Type of assay: cell-based. The following applies: 14 days. As for the experimental part:
Farage cells were cultured in RPMI1640 (1×) + 20% heat-inactivated fetal bovine serum (FBS), ULA in Iscove's modified Dulbecco's medium + 20% FBS, whereas Karpas422 and VAL were cultured in RPMI1640 + 20% heat-inactivated FBS, all with the addition of 1% Glutamax and 1% sodium pyruvate.
Farage, ULA, Karpas422, and VAL cells were seeded into T25 tissue culture flasks in a total volume of 7 mL per flask at densities of 5 x10^4, 7 x10^4, 5 x10^4, and 4 x10^4 cells/mL, respectively and incubated overnight at 37 °C and 5% CO2. Cells were then treated with a 3-point titration of GSK137 (0.1 µM, 1 µM, and 10 µM) throughout a 14-day time course. Treatments with multiple concentrations of BI3802 were also included for comparison (Farage and Karpas422 cells were treated with 0.01 µM, 0.1 µM, and 1 µM BI3802; ULA cells were treated with 0.1 µM and 1 µM BI3802; VAL cells were treated with 0.1 µM, 1 µM, and 10 µM BI3802). Viability (trypan blue exlcusion) and cumulative cell number were measured on a Vi-CELL XR 2.03 (Beckman Coulter, Brea, CA, USA) on day of seeding and on days 3, 6, 10, and 14.

Entries after “also recorded” stand apart in the source; their conditions may differ.

Regarding `CNC(=O)COc1cc2cc(Nc3nc(N4C[C@H](C)C[C@H](C)C4)ncc3Cl)ccc2n(C)c1=O` [BI3802, reference compound], the “activity in cell-free assay compared with reported potency” value in assay [1] (cell-free) is given as “consistent with the previously reported potency”. Moreover, in assay [2] (cellular), the “activity in cellular assay compared with reported potency” value is listed as “consistent with the previously reported potency”. Besides, in assay [3], the cumulative cell number entry was “showed some response”.
`Cc1ncccc1[C@H]1C[C@@H](c2cccc3nc(N)ccc23)Nc2c(F)cnn21` [GSK137, 5-((5S,7R)-3-Fluoro-7-(2-methylpyridin-3-yl)-4,5,6,7-tetrahydropyrazolo[1,5-a]pyrimidin-5-yl)quinolin-2-amine]: the IC50 was 10 nM in assay [1] (from pIC50 = 8, read-out: affinity for the BCL6 BTB-POZ domain) and 50.1 nM in assay [2] (live cells, full-length human BCL6 / SMRT BBD, read-out: pIC50 Human NanoBret cell (converted)). The cumulative cell number entry in assay [3] is given as “no detectable change”. Besides, the cell viability entry in assay [3] (GSK137 0.1-10 μM) is listed as “no major change in cell viability; also recorded: no detectable change”.
